Experimental data as given in US8263587B2, “Benzoxazepine compounds, their preparation and use” (Piramal Healthcare Limited, priority 2006, dated 2012).
Blank lines part the entries; values can stand above or below the compound they belong to.

Key:
isolated rat hepatocytes [1] = assay: Inhibition of gluconeogenesis in isolated rat hepatocytes; assay type: cell-based; conditions: 5 mM fructose
Procedure: Assay protocol for determination of inhibition of gluconeogenesis by compounds in isolated rat hepatocytes:
Hepatocytes were isolated by collagenase digestion of perfused livers from male Wistar rats fasted overnight according to the method described in J. Cell. Science., 56, 233-244, 1982, the disclosure of which is incorporated by reference for the teaching of the method.
(§1) The assay was done in three groups: basal, control and test. The test compounds were added to the vials at different concentrations. The isolated hepatocytes were added to the vials and they were incubated at 37° C. for 15 min. After 15 min, 5 mM fructose (precursor for gluconeogenesis) was added to the control and test group. Vials were again incubated at 37° C. for one hour with constant shaking (80 cycles/min.). Incubation was terminated by centrifuging the reaction mixture at 3000 rpm for 5 min. The supernatant was used for determination of both glucose and lactate dehydrogenase (LDH) (Table 1).
An active compound would decrease the amount of glucose formed, which is read at 520 nm by glucose oxidase-peroxidase method.

isolated rat hepatocytes [2] = assay: LDH leakage from isolated rat hepatocytes; assay type: cell-based
Procedure: as §1
The LDH activity is measured, by the method described in Meth. Enz. Ana. 3, 118-125, 1984, the disclosure of which is incorporated by reference for the teaching of the method, as the amount of pyruvate consumed by continuously monitoring the decrease in absorbance due to oxidation of NADH (Nicotinamide Adenine Dinucleotide-reduced form) at 339 nm.

3T3-L1 pre-adipocytes = assay: Potentiation of insulin-stimulated lipogenesis in 3T3-L1 adipocytes; assay type: cell-based; conditions: over insulin control = 1
Procedure: 3T3-L1 pre-adipocytes were grown to confluence in 25 ml culture flasks in DMEM (Dulbecco's Modified Eagle's Medium, with 25 mM glucose) containing 10% fetal calf serum (FCS) and antibiotics in a humidified atmosphere of 5% CO2 and 95% air at 37° C. The medium was changed every 2-3 days. The cells were trypsinised at confluency using 0.25% trypsin and transferred to another flask.
For the assay, cells were grown in 24 well plates. Induction of differentiation was done when the cells had grown to confluency with DMEM containing 5% FCS and supplemented with 0.5 mM IBMX (3-Isobutyl-1-methylxanthine), 0.5 μM DEX (dexamethasone) and 1 μg/ml insulin. […] The medium was changed three times, each at an interval of 2 days. On the day of termination of medium changes, lipogenesis assay was performed.
3T3-L1 cells were grown to confluency in 24 well plates. […] On the day of termination of the assay the cells were incubated in […] KRHB (Krebs-Ringer Hepes buffer) for 2 hr at 37° C. in a CO2 incubator. This was replaced with fresh KRHB with 0.1 mM glucose containing 100 nM insulin, test compound or insulin plus test compound. Lipogenesis was initiated by the addition of 20 μl of 50 μCi/ml [^3H]-D-Glucose to each well and incubation for 90 min at 37° C. in a CO2 incubator. The reaction was terminated by aspirating the medium from each well and washing the cells rapidly 3 times with ice-cold PBS (phosphate buffered saline). 500 μl of 0.2 N NaOH was added to lyse the cells. 450 μl was aliquoted into scintillation vials and scintillation cocktail added. The vials were read in Liquid Scintillation Counter. Results are expressed as fold activation of the standard or test compound over the control (Table 2).

hPPARγ = target: T1, hPPARγ (Homo sapiens, UniProt P37231); assay: hPPARγ transactivation in cell-based assay (CV-1 cells, luciferase); parameters: Emax: dose or concentration left out as unconfirmed; conditions: for PPARγ (Fold activation at 1 μM): CV-1 cells transfected with hPPARγ
T1 construct: expressed in transfected cells; host or cells: CV-1 cells
T1 sequence (P37231 1-505): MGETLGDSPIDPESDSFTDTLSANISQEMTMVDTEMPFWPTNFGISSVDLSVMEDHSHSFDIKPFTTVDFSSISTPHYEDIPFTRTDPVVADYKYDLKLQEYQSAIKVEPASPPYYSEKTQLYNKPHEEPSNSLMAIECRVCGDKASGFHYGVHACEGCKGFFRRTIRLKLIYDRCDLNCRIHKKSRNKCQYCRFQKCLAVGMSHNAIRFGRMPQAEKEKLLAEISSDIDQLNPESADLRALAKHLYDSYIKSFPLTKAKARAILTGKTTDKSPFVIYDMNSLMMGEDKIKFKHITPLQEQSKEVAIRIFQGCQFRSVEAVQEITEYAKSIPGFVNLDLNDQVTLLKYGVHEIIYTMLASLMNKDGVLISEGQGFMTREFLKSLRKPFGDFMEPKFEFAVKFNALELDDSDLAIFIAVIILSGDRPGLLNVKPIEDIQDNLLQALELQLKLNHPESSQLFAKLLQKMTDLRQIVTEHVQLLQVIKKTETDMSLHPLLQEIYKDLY
Procedure: (§2) Cell based transcription assay was employed to identify hPPAR γ/α agonists. CV-1 cells were maintained in MEM (minimum essential medium) containing 10% FBS (fetal bovine serum). Cells were seeded at a density of 80,000 cells/well in a 24-well plate one day prior to transfection. CV-1 cells were transiently transfected with hPPAR γ/α using Lipofectamine 2000. […] Receptor activation by ligands leads to activation of luciferase expression, which was measured after 15-16 h incubation. The cells were washed with PBS, lysed, and luciferase activity measured in a microplate luminometer. […] Both compounds were synthesized in-house. Maximum activation with the reference agonists was defined as 100%. Receptor activation by test compounds is presented as percentage of maximum activation caused by the respective reference agonists in Table 4(a), Table 4(b) and Table 4(c).

hPPARα = target: T2, hPPARα (Homo sapiens, UniProt Q07869); assay: hPPARα transactivation in cell-based assay (CV-1 cells, luciferase)
T2 construct: expressed in transfected cells; host or cells: CV-1 cells
T2 sequence (Q07869 1-468): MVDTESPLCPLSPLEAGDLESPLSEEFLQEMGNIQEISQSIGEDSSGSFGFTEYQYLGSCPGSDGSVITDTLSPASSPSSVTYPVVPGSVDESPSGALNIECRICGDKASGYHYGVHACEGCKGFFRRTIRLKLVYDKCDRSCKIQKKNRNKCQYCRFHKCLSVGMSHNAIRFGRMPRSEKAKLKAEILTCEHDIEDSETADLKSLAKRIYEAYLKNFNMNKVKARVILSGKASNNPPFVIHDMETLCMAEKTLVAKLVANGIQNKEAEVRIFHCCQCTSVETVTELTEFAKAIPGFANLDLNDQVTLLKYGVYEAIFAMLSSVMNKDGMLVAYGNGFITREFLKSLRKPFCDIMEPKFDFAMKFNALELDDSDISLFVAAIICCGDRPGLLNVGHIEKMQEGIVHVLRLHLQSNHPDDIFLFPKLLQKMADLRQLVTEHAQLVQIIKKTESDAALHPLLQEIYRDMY
Procedure: as §2

[3] = system: STZ induced diabetic rats; assay: Streptozotocin-induced diabetes in rats, blood glucose; assay type: in vivo, male Wistar rats; conditions: for Percent reduction in blood glucose: STZ diabetic rats
Procedure: Diabetes was induced in male Wistar rats by intraperitoneal (i.p.) injection of streptozotocin (STZ) (60 mg/kg) dissolved in 0.05 M citrate buffer, pH 4.6. Plasma glucose levels were estimated 48 hours after STZ administration. […] The rats were divided into […] (n=8 in each group): the first (control) group consisted of untreated animals, the second group had diabetic animals and the third and fourth groups consisted of diabetic animals treated with the test compounds (50 and 100 mg/kg respectively). Test compounds were administered p.o. for 8 days to STZ induced diabetic rats (180-200 g). Blood glucose was measured on day 0, 3 and 8 (Table 3).

[4] = one entry 'No leakage' for all concentrations tested of the compound (up to 100 μM)
[5] = with insulin, concentration not given
[6] = Rattus norvegicus, Hepatocyte, 100 μM, read-out: Gluconeogenesis (glucose production) % inhibition
[7] = CV-1, read-out: PPARγ activation as percentage of maximum activation by rosiglitazone
[8] = Rattus norvegicus, Hepatocyte, 10 μM, read-out: Gluconeogenesis (glucose production) % inhibition
[9] = Rattus norvegicus, Hepatocyte, read-out: Gluconeogenesis (glucose production) % inhibition
[10] = Rattus norvegicus, Hepatocyte, 50 μM, read-out: Gluconeogenesis (glucose production) % inhibition
[11] = 10 μM, isolated rat hepatocytes
[12] = 25 μM, isolated rat hepatocytes
[13] = 50 μM, isolated rat hepatocytes
[14] = 100 μM, isolated rat hepatocytes

Compound: O=C(O)/C=C\C(=O)O.O=C1NC(=O)C(=Cc2ccc3c(c2)CN(c2ccccn2)CCO3)S1 [Compound of Example 8, 5-(4-Pyridin-2-yl-2,3,4,5-tetrahydro-benzo[f][1,4]oxazepin-7-ylmethylene)-thiazolidine-2,4-dione maleate]
Gluconeogenesis (glucose production) % inhibition (isolated rat hepatocytes [1]; 10 μM): 9%
Gluconeogenesis (glucose production) % inhibition (isolated rat hepatocytes [1]; 50 μM): 13%
Gluconeogenesis (glucose production) % inhibition (isolated rat hepatocytes [1]; 100 μM): 45%
LDH % leakage (isolated rat hepatocytes [2]; [4]): No
Fold stimulation of insulin-stimulated lipogenesis (3T3-L1 pre-adipocytes; [5]): 1.8 fold
melting point: 224 to 226 °C

LDH % leakage (isolated rat hepatocytes [2]; [4]): No
PPARγ (Fold activation at 1 μM) (hPPARγ): 0.7 fold
Emax at 1 µM (hPPARγ; [7]): 9%
PPARα (Fold activation at 20 μM) (hPPARα; 20 μM, CV-1 cells transfected with hPPARα): 1.5 fold
Emax at 20 µM (hPPARα; CV-1, read-out: PPARα activation as percentage of maximum activation by Wy-14643): 47%
Compound: O=C1NC(=O)C(Cc2ccc3c(c2)CN(c2nc4ccccc4o2)CCO3)S1 (centres unmarked) [Compound of Example 7, 5-(4-Benzooxazol-2-yl-2,3,4,5-tetrahydro-benzo[f][1,4]oxazepin-7-yl-methyl)-thiazolidine-2,4-dione]
inhibition at 3 µM (isolated rat hepatocytes [1]; Rattus norvegicus, Hepatocyte, 3 μM, read-out: Gluconeogenesis (glucose production) % inhibition): 12%
inhibition at 30 µM (isolated rat hepatocytes [1]; Rattus norvegicus, Hepatocyte, 30 μM, read-out: Gluconeogenesis (glucose production) % inhibition): 19%
inhibition at 100 µM (isolated rat hepatocytes [1]; [6]): 50%

LDH % leakage (isolated rat hepatocytes [2]; 5 μM, isolated rat hepatocytes): 9%
LDH % leakage (isolated rat hepatocytes [2]; [11]): 9%
LDH % leakage (isolated rat hepatocytes [2]; [12]): 10%
LDH % leakage (isolated rat hepatocytes [2]; [13]): 11%
LDH % leakage (isolated rat hepatocytes [2]; [14]): 15%
Compound: CN(CCOc1ccc(CC2SC(=O)NC2=O)cc1)c1ccccn1 (centres unmarked) [Rosiglitazone, reference compound]
inhibition at 5 µM (isolated rat hepatocytes [1]; Rattus norvegicus, Hepatocyte, 5 μM, read-out: Gluconeogenesis (glucose production) % inhibition): 11%
inhibition at 10 µM (isolated rat hepatocytes [1]; [8]): 28%
inhibition at 25 µM (isolated rat hepatocytes [1]; [9]): 43%
inhibition at 50 µM (isolated rat hepatocytes [1]; [10]): 57%
inhibition at 100 µM (isolated rat hepatocytes [1]; [6]): 68%

Compound: O=C(O)/C=C\C(=O)O.O=C1NC(=O)C(Cc2ccc3c(c2)CN(c2ccccn2)CCO3)S1 (centres unmarked) [Compound of Example 5, 5-(4-Pyridine-2-yl-2,3,4,5-tetrahydro-benzo[f][1,4]oxazepin-7-ylmethyl)-thiazolidine-2,4-dione maleate]
Percent reduction in blood glucose ([3]; 50 mpk p.o. for 8 days): 28%
Blood glucose ([3]; 50 mpk p.o., Day 0, STZ diabetic rats): 16.8 ± 0.9 μmols/ml
Blood glucose ([3]; 50 mpk p.o., Day 3, STZ diabetic rats): 15.9 ± 3.0 μmols/ml
Blood glucose ([3]; 50 mpk p.o., Day 8, STZ diabetic rats): 14.1 ± 1.99 μmols/ml
Percent reduction in blood glucose ([3]; 100 mpk p.o. for 8 days): 31%
Blood glucose ([3]; 100 mpk p.o., Day 0, STZ diabetic rats): 17.0 ± 2.0 μmols/ml
Blood glucose ([3]; 100 mpk p.o., Day 3, STZ diabetic rats): 16.0 ± 1.09 μmols/ml
Blood glucose ([3]; 100 mpk p.o., Day 8, STZ diabetic rats): 13.0 ± 0.9 μmols/ml
PPARγ (Fold activation at 1 μM) (hPPARγ): 1.8 fold
Emax (hPPARγ; [7]): 12%

Compound: O=C1NC(=O)C(Cc2ccc3c(c2)CN(c2ccccn2)CCO3)S1 (centres unmarked) [Compound of Example 4, 5-(4-Pyridin-2-yl-2,3,4,5-tetrahydro-benzo[f][1,4]oxazepin-7-yl-methyl)-thiazolidine-2,4-dione]
inhibition at 10 µM (isolated rat hepatocytes [1]; [8]): 27%
inhibition at 50 µM (isolated rat hepatocytes [1]; [10]): 35%
inhibition at 100 µM (isolated rat hepatocytes [1]; [6]): 57%
LDH % leakage (isolated rat hepatocytes [2]; [4]): No
Fold stimulation of insulin-stimulated lipogenesis (3T3-L1 pre-adipocytes; 10 μM with insulin): 2 fold
Fold stimulation of insulin-stimulated lipogenesis (3T3-L1 pre-adipocytes; 100 μM with insulin): 2.3 fold
melting point: 180 to 181 °C

Compound: COC(=O)C(Cc1ccc2c(c1)CN(c1ccccn1)CCO2)C(=O)OC [Compound of Example 2]
Fold stimulation of insulin-stimulated lipogenesis (3T3-L1 pre-adipocytes; [5]): 2 fold

Compound: O=C1NC(=O)C(=Cc2ccc3c(c2)CN(c2nc4ccccc4o2)CCO3)S1 [Compound of Example 6, 5-(4-Benzooxazol-2-yl-2,3,4,5-tetrahydro-benzo[f][1,4]oxazepin-7-ylmethylene)-thiazolidine-2,4-dione]
Fold stimulation of insulin-stimulated lipogenesis (3T3-L1 pre-adipocytes; 10 μM with insulin): 1.4 fold

LDH % leakage (isolated rat hepatocytes [2]; [11]): 5%
LDH % leakage (isolated rat hepatocytes [2]; [12]): 5%
LDH % leakage (isolated rat hepatocytes [2]; [13]): 6%
LDH % leakage (isolated rat hepatocytes [2]; 75 μM, isolated rat hepatocytes): 7%
LDH % leakage (isolated rat hepatocytes [2]; [14]): 7%
Compound: O=C1NC(=O)C(=Cc2ccc3c(c2)CN(c2ccccn2)CCO3)S1 [Compound of Example 3, 5-(4-Pyridin-2-yl-2,3,4,5-tetrahydro-benzo[f][1,4]oxazepin-7-ylmethylene)-thiazolidine-2,4-dione]
Gluconeogenesis (glucose production) % inhibition (isolated rat hepatocytes [1]; 50 μM): 42%
Gluconeogenesis (glucose production) % inhibition (isolated rat hepatocytes [1]; 100 μM): 74%
inhibition at 10 µM (isolated rat hepatocytes [1]; [8]): 10%
inhibition at 25 µM (isolated rat hepatocytes [1]; [9]): 36%
inhibition at 75 µM (isolated rat hepatocytes [1]; Rattus norvegicus, Hepatocyte, 75 μM, read-out: Gluconeogenesis (glucose production) % inhibition): 51%
Fold stimulation of insulin-stimulated lipogenesis (3T3-L1 pre-adipocytes; 1 μM with insulin): 1.2 fold
Fold stimulation of insulin-stimulated lipogenesis (3T3-L1 pre-adipocytes; 10 μM with insulin): 1.4 fold
Fold stimulation of insulin-stimulated lipogenesis (3T3-L1 pre-adipocytes; 25 μM with insulin): 1.7 fold
